Earlier results on one substance are cited in US20050020589A1, “Sustained-release tablet composition comprising a dopamine receptor agonist” (Pfizer Inc., priority 2003, published 2005).

With “(R)-5,6-dihydro-5-(methylarnino)-4H-imidazo[4,5-ij]-quinolin-2(1H)-one (Z)-2-butenedioate (1:1) [maleate salt of sumanirole]”, the Solubility result was “highly soluble”.
